Assay results published in US11414424B2, “Cardiac sarcomere inhibitors” (Cytokinetics, Inc., priority 2018, dated 2022).

System: bovine cardiac myofibrils
Assay: Myofibril assay: PK/LDH-coupled steady-state ATPase activity of skinned bovine cardiac myofibrils
Assay type: biochemical
Conditions: Ca2+ activating to 75% of maximal rate
Method in brief: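 Steady-state ATPase of detergent-skinned bovine left-ventricular myofibrils (1 mg/mL), PK/LDH-coupled NADH read at 340 nm, in PIPES/MgCl2 buffer pH 6.8 with 50 μM ATP, 0.6 mM EGTA and CaCl2 set for 50% or 75% activation. Inhibition of activity measured.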

Row | CDMF75 IC15 [µM] | SMILES
1 | 7.3 | CC(C)N1CC(=O)N(Cc2ccc(Cl)cc2)C2(CC(c3ccccc3)C2)C1=O (stereo not drawn) [Compound 318, 5-(4-chlorobenzyl)-8-isopropyl-2-phenyl-5,8-diazaspiro[3.5]nonane-6,9-dione]
2 | 24.0 | CC(C)N1CC(=O)N(Cc2ccc(C(F)(F)F)cc2)C2(CCc3ccccc32)C1=O (stereo not drawn) [Compound 319, 4′-isopropyl-1′-(4-(trifluoromethyl)benzyl)-2,3-dihydrospiro[indene-1,2′-piperazine]-3′,6′-dione]
3 | 22.1 | CNC(=O)N1CC2(C1)C(=O)N([C@H]1CC[C@@H](C#N)C1)CC(=O)N2Cc1ccc(C(F)(F)F)cc1 [Compound 321, 8-((1S,3R)-3-cyano-cyclopentyl)-N-methyl-6,9-dioxo-5-(4-(trifluoromethyl)benzyl)-2,5,8-triazaspiro[3.5]-nonane-2-carboxamide]
4 | 10.8 | CC(=O)N1CC2(C1)C(=O)N([C@H]1CC[C@H](C)CC1)CC(=O)N2Cc1ccc(C(F)(F)F)cc1 [Compound 322, 2-acetyl-8-((1r,4r)-4-methylcyclohexyl)-5-(4-(trifluoromethyl)benzyl)-2,5,8-triazaspiro[3.5]-nonane-6,9-dione]
5 | 6.4 | CCC1CCC(N2CC(=O)N(Cc3ccc(C(F)(F)F)cc3)C3(CN(C(C)=O)C3)C2=O)CC1 (stereo not drawn) [Compound 323, 2-acetyl-8-(4-ethylcyclo-hexyl)-5-(4-(trifluoro-methyl)benzyl)-2,5,8-triazaspiro[3.5]nonane-6,9-dione]
6 | 11.5 | CC(=O)N1CC2(C1)C(=O)N(C1CCC(C(F)F)CC1)CC(=O)N2Cc1ccc(C(F)(F)F)cc1 (stereo not drawn) [Compound 324, 2-acetyl-8-(4-(difluoro-methyl)cyclohexyl)-5-(4-(trifluoromethyl)benzyl)-2,5,8-triazaspiro[3.5]-nonane-6,9-dione]
7 | 22.8 | CC(=O)N1CC2(C1)C(=O)N([C@H]1CC[C@H](C#N)CC1)CC(=O)N2Cc1ccc(C(F)(F)F)cc1 [Compound 325, (1r,4r)-4-(2-acetyl-6,9-dioxo-5-(4-(trifluoromethyl)benzyl)-2,5,8-triazaspiro[3.5]nonan-8-yl)cyclohexane-l-carbonitrile]
8 | 23.7 | CC(=O)N1CC2(C1)C(=O)N(C1CCCCCC1)CC(=O)N2Cc1ccc(C(F)(F)F)cc1 [Compound 326, 2-acetyl-8-cycloheptyl-5-(4-(trifluoromethyl)benzyl)-2,5,8-triazaspiro[3.5]-nonane-6,9-dione]
9 | 9.8 | CC(C)N1CC(=O)N(Cc2ccc(C(F)(F)F)cc2)C2(CCN(c3ccccc3)C2=O)C1=O (stereo not drawn) [Compound 327, 9-isopropyl-2-phenyl-6-(4-(trifluoromethyl)benzyl)-2,6,9-triazaspiro[4.5]decane-1,7,10-trione]
10 | 19.3 | CC(C)N1CC(=O)N([C@@H](C)c2ccc(C(F)(F)F)cc2)C2(CN(c3ccccc3)C2)C1=N [Compound 328, (S)-9-imino-8-isopropyl-2-phenyl-5-(1-(4-(trifluoromethyl)phenyl)ethyl)-2,5,8-triazaspiro[3.5]nonan-6-one]
11 | 9.3 | CC(C)N1C(=O)C2(CN(c3ccccc3)C2)N(Cc2ccc(Cl)cc2)C(=O)C1C (stereo not drawn) [Compound 329, 5-(4-chlorobenzyl)-8-isopropyl-7-methyl-2-phenyl-2,5,8-triazaspiro-[3.5]nonane-6,9-dione]
12 | 10.7 | CC(C)N1CC(=O)N(Cc2ccc(Cl)cc2)C2(CCN(c3cnn(C)c3)C2=O)C1=O (stereo not drawn) [Compound 330, 6-(4-chlorobenzyl)-9-isopropyl-2-(1-methyl-1H-pyrazol-4-yl)-2,6,9-triazaspiro[4.5]decane-1,7,10-trione]
13 | 30.9 | CC(C)N1CC(=O)N(Cc2ccc(Cl)cc2)C2(CC(=O)N(c3ccccc3)C2)C1=O (stereo not drawn) [Compound 331, 6-(4-chlorobenzyl)-9-isopropyl-2-phenyl-2,6,9-triazaspiro[4.5]decane-3,7,10-trione]
14 | 16.6 | CC(C)N1CC(=O)N(Cc2ccc(Cl)cc2)C2(CC(=O)N(c3ccccn3)C2)C1=O (stereo not drawn) [Compound 332, 6-(4-chlorobenzyl)-9-isopropyl-2-(pyridin-2-yl)-2,6,9-triazaspiro[4.5]decane-3,7,10-trione]
15 | 16.6 | Cc1cc(N2CCC3(C2=O)C(=O)N(C(C)C)CC(=O)N3Cc2ccc(Cl)cc2)ccn1 (stereo not drawn) [Compound 333, 6-(4-chlorobenzyl)-9-isopropyl-2-(2-methyl-pyridin-4-yl)-2,6,9-triazaspiro[4.5]decane-1,7,10-trione]
16 | 8.0 | CNC(=O)N1CCC2(C1)C(=O)N(Cc1ccc(OC)cc1)CC(=O)N2Cc1ccc(Cl)cc1 (stereo not drawn) [Compound 334, 6-(4-chlorobenzyl)-9-(4-methoxybenzyl)-N-methyl-7,10-dioxo-2,6,9-triazaspiro[4.5]decane-2-carboxamide]
17 | 12.2 | CNC(=O)N1CC2(C1)C(=O)N(Cc1ccc(C(F)(F)F)cc1)CC(=O)N2Cc1ccc(C(F)(F)F)cc1 [Compound 335, N-methyl-6,9-dioxo-5,8-bis(4-(trifluoromethyl)benzyl)-2,5,8-triazaspiro[3.5]nonane-2-carboxamide]
18 | 1.1 | CNC(=O)N1CC2(C1)C(=O)N(Cc1ccc(C#N)cc1)CC(=O)N2Cc1ccc(C(F)(F)F)cc1 [Compound 336, 8-(4-cyanobenzyl)-N-methyl-6,9-dioxo-5-(4-(trifluoromethyl)benzyl)-2,5,8-triazaspiro[3.5]nonane-2-carboxamide]
19 | 1.63 | CNC(=O)N1CC2(C1)C(=O)N(Cc1ccc(Cl)cc1)CC(=O)N2Cc1ccc(C(F)(F)F)cc1 [Compound 337, 8-(4-chlorobenzyl)-N-methyl-6,9-dioxo-5-(4-(trifluoromethyl)benzyl)-2,5,8-triazaspiro[3.5]-nonane-2-carboxamide]
20 | 1.51 | CNC(=O)N1CC2(C1)C(=O)N(C(C)c1ccc(C#N)cc1)CC(=O)N2Cc1ccc(C(F)(F)F)cc1 (stereo not drawn) [Compound 338, 8-(1-(4-cyanophenyl)ethyl)-N-methyl-6,9-dioxo-5-(4-(trifluoromethyl)benzyl)-2,5,8-triazaspiro[3.5]nonane-2-carboxamide]
21 | 0.7 | CC(=O)N1CC2(C1)C(=O)N(c1ccc(Cl)cc1F)CC(=O)N2[C@@H](C)c1ccc(C(F)(F)F)cc1 [Compound 340, (S)-2-acetyl-8-(4-chloro-2-fluorophenyl)-5-(1-(4-(trifluoromethyl)phenyl)-ethyl)-2,5,8-triazaspiro-[3.5]nonane-6,9-dione]
22 | 5.4 | CC(=O)N1CC2(C1)C(=O)N(c1ccc(Cl)cc1F)C(C)C(=O)N2Cc1ccc(C(F)(F)F)cc1 (stereo not drawn) [Compound 341, 2-acetyl-8-(4-chloro-2-fluorophenyl)-7-methyl-5-(4-(trifluoromethyl)benzyl)-2,5,8-triazaspiro[3.5]nonane-6,9-dione]
23 | 26.4 | COCC1C(=O)N(Cc2ccc(Cl)cc2)C2(CN(c3ccc(C#N)cn3)C2)C(=O)N1C(C)C (stereo not drawn) [Compound 347, 6-(5-(4-chlorobenzyl)-8-isopropyl-7-(methoxymethyl)-6,9-dioxo-2,5,8-triazaspiro[3.5]nonan-2-yl)nicotinonitrile]

Row | SMILES | CDMF75 IC15 [µM]
24 | CNC(=O)N1CC2(C1)C(=O)N(C(C)CC#N)CC(=O)N2Cc1ccc(C(F)(F)F)cc1 (stereo not drawn) [Compound 320, 8-(1-cyanopropan-2-yl)-N-methyl-6,9-dioxo-5-(4-(trifluoromethyl)benzyl)-2,5,8-triazaspiro[3.5]nonane-2-carboxamide] | 17.8
